The structures appear in SMILES notation. Bounds are passed on as bounds.

The assay deals with T1, Interstitial collagenase (Homo sapiens, UniProt P03956).
T1 sequence (P03956 whole entry): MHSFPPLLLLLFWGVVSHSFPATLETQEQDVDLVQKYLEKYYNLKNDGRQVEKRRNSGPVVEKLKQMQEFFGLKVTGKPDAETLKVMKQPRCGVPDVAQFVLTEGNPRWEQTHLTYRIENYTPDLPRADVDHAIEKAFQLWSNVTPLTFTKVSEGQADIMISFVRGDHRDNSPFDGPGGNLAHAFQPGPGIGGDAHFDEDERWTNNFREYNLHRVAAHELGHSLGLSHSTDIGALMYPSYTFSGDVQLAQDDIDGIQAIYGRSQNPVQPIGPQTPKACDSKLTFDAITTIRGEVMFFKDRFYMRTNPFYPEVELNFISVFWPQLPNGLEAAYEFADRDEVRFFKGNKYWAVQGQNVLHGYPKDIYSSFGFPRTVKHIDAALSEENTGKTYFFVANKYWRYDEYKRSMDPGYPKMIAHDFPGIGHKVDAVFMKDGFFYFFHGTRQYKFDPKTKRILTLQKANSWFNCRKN
Description: Inhibitory activity towards human recombinant fibroblast collagenase.

Take `O=C(C[C@@H](CCc1ccccc1)C(=O)N[C@@H](Cc1ccccc1)C(=O)NCc1ccccc1)NO`: the IC50 was determined as 4.1 µM. As for `O=C(C[C@H](C(=O)N[C@@H](Cc1ccccc1)C(=O)NCc1ccccc1)c1cccc2ccccc12)NO`, the IC50 was > 10 µM. With `O=C(C[C@H](C(=O)N[C@@H](Cc1ccccc1)C(=O)NCc1ccccc1)c1ccc(-c2ccccc2)cc1)NO`, the IC50 was > 10 µM. For the compound `CN(C)C[C@H](CC(=O)NO)C(=O)N[C@@H](Cc1ccccc1)C(=O)NCc1ccccc1`, the IC50 is > 10 µM. Consider `C[C@H](CC(=O)NO)C(=O)N[C@@H](Cc1ccccc1)C(=O)NCc1ccccc1`, for which the IC50 was > 10 µM. On to `O=C(C[C@H](C(=O)N[C@@H](Cc1ccccc1)C(=O)NCc1ccccc1)c1ccccc1)NO`, for which the IC50 is 17 µM. `O=C(C[C@H](C(=O)N[C@@H](Cc1ccccc1)C(=O)NCc1ccccc1)C1CCCCC1)NO`: the IC50 is 1.5 µM. For `O=C(C[C@@H](Cc1ccccc1)C(=O)N[C@@H](Cc1ccccc1)C(=O)NCc1ccccc1)NO` the value was 7 µM. Next, `CC(C)C[C@@H](CC(=O)NO)C(=O)N[C@@H](Cc1ccccc1)C(=O)NCc1ccccc1`: > 10 µM; `CC(C)S[C@H](CC(=O)NO)C(=O)N[C@@H](Cc1ccccc1)C(=O)NCc1ccccc1`: 1.9 µM.

For the compound `O=C(C[C@@H](CC1CCCCC1)C(=O)N[C@@H](Cc1ccccc1)C(=O)NCc1ccccc1)NO`, the 50% inhibitory concentration (IC50) worked out at 4.6 µM. As to `CC(C)C[C@H](CC(=O)NO)C(=O)N[C@@H](Cc1ccccc1)C(=O)NCc1ccccc1`, the IC50 turned out to be 0.03 µM. Next, `O=C(C[C@@H](Cc1ccc2ccccc2c1)C(=O)N[C@@H](Cc1ccccc1)C(=O)NCc1ccccc1)NO`: > 10 µM. Next, `O=C(CCC(=O)N[C@@H](Cc1ccccc1)C(=O)NCc1ccccc1)NO`: > 10 µM; `O=C(C[C@@H](CCC1CCCCC1)C(=O)N[C@@H](Cc1ccccc1)C(=O)NCc1ccccc1)NO`: > 10 µM. In the case of `O=C(C[C@@H](CC1CCCC1)C(=O)N[C@@H](Cc1ccccc1)C(=O)NCc1ccccc1)NO`, the IC50 is 0.02 µM.

In general, IC50 refers to the concentration that inhibits the measured activity by half.

The values above are taken from ChEMBL document CHEMBL1131284, “Hydroxamate-based inhibitors of low affinity IgE receptor (CD23) processing” (Bioorg Med Chem Lett, 1998).
